Experimental findings from patent publication US11110070B2 (priority 2015, dated 2021) are described below.

In test [1] the test system is 129S6/SvEv mice. Description: FST after prophylactic ketamine or ketamine metabolites (FIG. 15). Type of test: in vivo. Conditions: at 10 and 30 mg/kg.
For test [2], the system named is 129S6/SvEvTac mice. Briefly: Forced swim test (FST) in social defeat (SD) model. Type of test: in vivo. As for the experimental part: Experiment 1 (Pre-ketamine in social defeat (SD)): At 8 weeks of age, a single injection of saline (0.9% NaCl) or ketamine (K) (10, 30, or 90 mg kg^−1) (Ketaset III, Ketamine HCl, Fort Dodge Animal Health, Forth Dodge, Iowa) was administered. Ketamine was prepared in physiological saline and all injections were administered intraperitoneally (i.p.) in volumes of 0.1 cc per […]. […] At 9 weeks of age, 1 week following this injection, SD was started.
24 h after the last bout of SD, a single injection of saline or ketamine (30 mg kg^−1) was administered (mice were 11 weeks old). The forced swim test (PST) was administered 2 h following the injection.
(§1) Experiment 3 (Pre-fluoxetine in SD): At 6 weeks of age, fluoxetine hydrochloride (Fix) (BioTrend Chemicals AG, B6197) was administered in the drinking water (18 mg kg^−1/day) for 3 weeks before the start of SD. Starting at 9 weeks of age, SD was then administered for 2 weeks without vehicle or Flx in the drinking water.
(§2) Adult aggressor CD-1 male mice were single-housed in Macrolon® polycarbonate resin cages (15.25 in×7.8 in×9.5 in) (Animal Care Systems, Inc., Centennial, Colo.). Male 129S6/SvEvTac mice (9 weeks of age) were subsequently placed into the resident. CD-1 mouse's cage. Three antagonistic encounters were allowed between the CD-1 mouse and the intruder. Each of these encounters typically lasted less than 5 min. Following the encounters, mice were separated by a polished stainless steel cage divider (Animal Care Systems, Inc., Centennial, Colo., P/N C79171), which allowed for olfactory and auditory communication, but limited visual or tactile contact. The partition was removed daily for 2 weeks and 3 antagonistic encounters were allowed between the mice each day. This procedure consistently yielded a submissive phenotype in the experimental intruder mice. Control (Ctrl) mice were group housed 4 to 5 per cage in Macrolon® polycarbonate resin cages without dividers.
The FST was administered as previously described (A11). Briefly, mice were placed into clear plastic buckets 20 cm in diameter and 23 cm deep filled ⅔ of the way with 22° C. water. Mice were videotaped, from the side for 6 min and were exposed to the swim test on 2 consecutive days. For the SI) experiments, scoring was performed using an automated Viewpoint Videotrack software package (http://www.viewpoint.fr/en/a/anxiety-and-depression). For the CORT experiments, automated scoring was done using the automated X'PERT EST software suite (Bioseb, Vitrolles, France). The dependent variable was immobility.

The subject of test [3] is C57BL/6NTac mice. Description: Tail suspension test (TST) after CORT. To be noted: after 4 weeks of CORT; ketamine 10 mg kg^−1 one injection or fluoxetine 18 mg kg^−1 per day; both time points. Type of test: in vivo. As for the experimental part: Experiment 6 (Post-ketamine and post-fluoxetine in CORT); In C57BL/6NTac mice. vehicle or CORT was administered for 4 weeks in the drinking water. While administration with 0.45% β-CD or CORT continued, mice were injected with saline or ketamine (10 mg kg^−1), or were administered vehicle or chronic fluoxetine (18 mg kg^−1 per day in the drinking water).
The TST was administered as previously described (A2). Briefly, animals were suspended for 6 min and immobility during this period was assessed using an automated TST apparatus (Bioseb, Vitrolles, France). A specific strain gauge linked to a computer quantifies the time spent by each mouse trying to escape.

The nature of test [4]: Body weight in CORT model. To be noted: ketamine 90 mg kg^−1 single injection or fluoxetine 18 mg kg^−1 for 3 weeks, before CORT. Type of test: in vivo, mice.
Test [5] deals with C57BL/6NTac mice. Briefly: NSF in CORT model. Type of test: in vivo. To be noted: treatment after 4 weeks of CORT; 14 days after the start of treatment. As for the experimental part: Experiment 5 (Pre-ketamine and pre-fluoxetine corticosterone (CORT)): C57BL16NTac mice were injected with ketamine (10, 30, 90 mg kg^−1, i.p.) 1 week before the start of CORT, or administered fluoxetine (18 mg kg^−1 per day) in the drinking water for 3 weeks before the start of CORT. Ketamine was purchased from Merial (100 mg/ml stock solution). Fluoxetine hydrochloride (160 μg/mL, equivalent to 18 mg kg^−1 per day in the drinking water) was purchased from Anawa Trading (Zurich, Switzerland) and dissolved in 0.45% hydroxypropyl-β-cyclodextrin (β-CD) (Sigma-Aldrich, Saint-Quentin Fallavier, France) solution. Following ketamine or fluoxetine treatment, CORT was administered for 3 weeks in the drinking water. CORT (4-pregnen-11b-DIOL-3 20-DIONE 21-hemisuccinate) (35 μg/ml) from. Sigma Aldrich (Saint-Quentin Fallavier, France) was dissolved in vehicle (0.45% β-CD). Control animals received vehicle (0.45% β-CD) throughout the duration of the experiment. […]
Testing was performed as previously described (A13). […] The latency of the mice to begin eating was recorded. Immediately after the latency was recorded, the food pellet was removed from the arena. The mice were then placed into a cage and the amount of food consumed in 5 min was measured (home cage consumption), followed by an assessment of post-restriction weight. […]

Test [6] concerns C57BL/6NTac mice. Description: FST in chronic corticosterone (CORT) model. Type of test: in vivo. To be noted: ketamine 90 mg kg^−1 or fluoxetine 18 mg kg^−1/day, before 3 weeks of CORT; hydrochloride.
Test [7] concerns 129S6/SvEvTac mice. Briefly: Fighting behavior during SD bouts. Type of test: in vivo. To be noted: SD-Flx vs SD-Veh. As for the experimental part:
as §2

Test [8] deals with C57BL/6NTac mice. Briefly: EPM in CORT model. Type of test: in vivo. To be noted: ketamine or fluoxetine before CORT. As for the experimental part: Experiment 5 (Pre-ketamine and pre-fluoxetine corticosterone (CORT)): C57BL16NTac mice were injected with ketamine (10, 30, 90 mg kg^−1, i.p.) 1 week before the start of CORT, or administered fluoxetine (18 mg kg^−1 per day) in the drinking water for 3 weeks before the start of CORT. Ketamine was purchased from Merial (100 mg/ml stock solution). Fluoxetine hydrochloride (160 μg/mL, equivalent to 18 mg kg^−1 per day in the drinking water) was purchased from Anawa Trading (Zurich, Switzerland) and dissolved in 0.45% hydroxypropyl-β-cyclodextrin (β-CD) (Sigma-Aldrich, Saint-Quentin Fallavier, France) solution. Following ketamine or fluoxetine treatment, CORT was administered for 3 weeks in the drinking water. CORT (4-pregnen-11b-DIOL-3 20-DIONE 21-hemisuccinate) (35 μg/ml) from. Sigma Aldrich (Saint-Quentin Fallavier, France) was dissolved in vehicle (0.45% β-CD). Control animals received vehicle (0.45% β-CD) throughout the duration of the experiment.
Testing was performed as previously described (A14). […] For the 12956/SvEv experiments, videos were scored using behavioral tracking software (TopScan, CleverSys, Reston, Va.). For the C57BL/6Ntac experiments, all parameters were measured using a videotracker (EPM3C. Bioseb, Vitrolles, France).

Test [9] concerns 129S6/SvEvTac mice. Briefly: Other behaviors following fluoxetine treatment before SD. Type of test: in vivo. Conditions: fluoxetine 3 weeks before SD. As for the experimental part: as §1

“Also recorded” adds a separate entry of the source. Structures can show the parent of a compound that is named as a salt.

Take `N[C@@]1(c2ccccc2Cl)CCC[C@@H](O)C1=O` [HNK, (2R,6R)-hydroxynorketamine]: the “prophylactic efficacy (behavioral despair, FST)” value in test [1] was “efficacious as prophylactics”.

As for `CNCCC(Oc1ccc(C(F)(F)F)cc1)c1ccccc1` (stereo not shown) [fluoxetine, fluoxetine hydrochloride], the “immobility time, day 2 of FST” value in test [2] (Ctrl mice, fluoxetine 18 mg kg^−1 for 3 weeks, vs Ctrl-Veh) is “equal levels of immobility time”; in test [2] (SD mice, fluoxetine 18 mg kg^−1 for 3 weeks before SD) it was “did not improve immobility time”. In addition, in test [3], the “immobility time in the TST” value is “decreased immobility time in the TST”. Also, in [4], the “CORT-induced increase in body weight” value is listed as “prevented the CORT-induced increase in body weight”. For the same compound, the “latency to feed in NSF” value in [5] is recorded as “decreased the latency to feed”. Moreover, the “immobility time on day 2 in the FST” value in [6] is on record as “decreased immobility time; also recorded: significantly reduced immobility”. In addition, in test [7], the “behavior during SD bouts” value was “do not display differences during SD bouts”. In addition, the “time in the closed arms of EPM (anxiety-like phenotype)” value in [8] was “Neither ketamine nor fluoxetine robustly protected”. Moreover, the anxiety or cognition entry in test [9] is listed as “did not significantly alter anxiety or cognition”.
